# Test results from BindingDB's records for patent WO2022076764 (BRISTOL-MYERS SQUIBB COMPANY, 2022).
# Experiments:
# [1] = molecular target: T1, N-formyl peptide receptor 2 (Homo sapiens, UniProt P25090)
# T1 sequence (P25090 whole entry): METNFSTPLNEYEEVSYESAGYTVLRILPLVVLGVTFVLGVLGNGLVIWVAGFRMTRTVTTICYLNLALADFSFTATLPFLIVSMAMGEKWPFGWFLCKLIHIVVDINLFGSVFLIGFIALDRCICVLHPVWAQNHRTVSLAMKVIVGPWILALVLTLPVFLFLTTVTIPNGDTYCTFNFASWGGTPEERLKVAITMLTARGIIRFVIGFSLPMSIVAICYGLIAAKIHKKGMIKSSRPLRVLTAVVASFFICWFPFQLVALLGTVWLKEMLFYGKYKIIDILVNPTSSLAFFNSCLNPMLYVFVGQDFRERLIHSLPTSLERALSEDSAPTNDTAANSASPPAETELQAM
# [2] = molecular target: T2, fMet-Leu-Phe receptor (Homo sapiens, UniProt P21462)
# T2 sequence (P21462 whole entry): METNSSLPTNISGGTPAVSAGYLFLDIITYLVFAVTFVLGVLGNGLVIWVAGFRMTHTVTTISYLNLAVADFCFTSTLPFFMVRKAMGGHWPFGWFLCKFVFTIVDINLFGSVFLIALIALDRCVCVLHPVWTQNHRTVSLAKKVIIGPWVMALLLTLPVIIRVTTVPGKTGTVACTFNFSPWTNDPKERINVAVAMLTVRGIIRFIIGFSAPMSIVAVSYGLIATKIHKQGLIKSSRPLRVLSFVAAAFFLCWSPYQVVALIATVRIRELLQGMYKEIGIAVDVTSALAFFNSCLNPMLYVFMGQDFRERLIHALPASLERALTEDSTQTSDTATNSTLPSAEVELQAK
EC50 [1],EC50 [2],Structure (SMILES)
0.044 µM,0.028 µM,"COc1ccc(-n2cc(-c3nc4ccccc4s3)nc2NC(=O)c2ccc(OC(F)F)cc2)cc1 [WO2022076764, Example 23]"
0.11 µM,0.009 µM,"COc1ccc(-n2cc(-c3nccs3)nc2NC(=O)c2ccc(OC(F)F)cc2)cc1 [WO2022076764, Example 24]"
0.047 µM,0.006 µM,"COc1cc(F)c(-n2cc(-c3ccccc3F)nc2NC(=O)c2ccc(OC(F)F)cc2)c(F)c1 [WO2022076764, Example 25]"
0.4 µM,0.072 µM,"COc1ccc(-n2cc(-c3nc4cc(Cl)ccc4o3)nc2NC(=O)c2ccc(OC(F)F)cc2)cc1 [WO2022076764, Example 26]"
0.66 µM,0.055 µM,"COc1ccc(-n2cc(C3CCCCC3)nc2NC(=O)c2ccc(OC(F)F)cc2)cc1 [WO2022076764, Example 27]"
1.03 µM,0.7 µM,"COc1ccc(-n2cc(-c3ccccn3)nc2NC(=O)c2ccc(OC(F)F)cc2)cc1 [WO2022076764, Example 28]"
0.032 µM,0.015 µM,"CCOC(=O)c1cc(-c2cn(-c3ccc(OC)cc3)c(NC(=O)c3ccc(OC(F)F)cc3)n2)on1 [WO2022076764, Example 29]"
0.1 µM,0.009 µM,"CCOC(=O)c1cn(-c2ccc(OC)cc2)c(NC(=O)c2ccc(OC(F)F)cc2)n1 [WO2022076764, Example 30]"
> 10 µM,0.32 µM,"COc1ccc(-n2cc(C34CC5CC(CC(C5)C3)C4)nc2NC(=O)c2ccc(OC(F)F)cc2)cc1 [WO2022076764, Example 31]"
0.11 µM,0.018 µM,"COc1ccc(-n2cc(C(C)(C)C)nc2NC(=O)c2ccc(OC(F)F)cc2)cc1 [WO2022076764, Example 32]"
0.94 µM,0.039 µM,"COc1cc(F)c(-n2cc(-c3ccccc3F)nc2NC(=O)c2ccc(OC(F)F)cc2)c(F)c1 [WO2022076764, Example 33]"
0.12 µM,0.016 µM,"COc1cc(F)c(-n2cc(-c3ccnc(Cl)c3)nc2NC(=O)c2ccc(OC(F)F)cc2)c(F)c1 [WO2022076764, Example 34]"
1.4 µM,0.099 µM,"COc1cc(F)c(-n2cc(CC(C)C)nc2NC(=O)c2ccc(OC(F)F)cc2)c(F)c1 [WO2022076764, Example 35]"
0.32 µM,0.031 µM,"COc1cc(F)c(-n2cc(-c3ccc(F)c(F)c3)nc2NC(=O)c2ccc(OC(F)F)cc2)c(F)c1 [WO2022076764, Example 36]"
0.8 µM,0.016 µM,"COc1cc(F)c(-n2cc(C3CC3)nc2NC(=O)c2ccc(OC(F)F)cc2)c(F)c1 [WO2022076764, Example 37]"
0.62 µM,0.015 µM,"CCOC(=O)c1cn(-c2c(F)cc(OC)cc2F)c(NC(=O)c2ccc(OC(F)F)cc2)n1 [WO2022076764, Example 38]"
1 µM,0.021 µM,"CCc1cn(-c2c(F)cc(OC)cc2F)c(NC(=O)c2ccc(OC(F)F)cc2)n1 [WO2022076764, Example 39]"
1 µM,0.011 µM,"COc1cc(F)c(-n2cc(-c3nccs3)nc2NC(=O)c2ccc(OC(F)F)cc2)c(F)c1 [WO2022076764, Example 40]"
0.23 µM,0.026 µM,"COc1cc(F)c(-n2cc(C3CCOCC3)nc2NC(=O)c2ccc(OC(F)F)cc2)c(F)c1 [WO2022076764, Example 41]"
0.057 µM,0.048 µM,"COc1cc(F)c(-n2cc(C(F)(F)C(F)(F)F)nc2NC(=O)c2ccc(OC(F)F)cc2)c(F)c1 [WO2022076764, Example 42]"
0.04 µM,0.01 µM,"COc1cc(F)c(-n2cc(C(F)(F)F)nc2NC(=O)c2ccc(OC(F)F)cc2)c(F)c1 [WO2022076764, Example 43]"
0.37 µM,0.048 µM,"COc1cc(F)c(-n2cc(C(=O)NCc3cc[nH]n3)nc2NC(=O)c2ccc(OC(F)F)cc2)c(F)c1 [WO2022076764, Example 44]"
0.71 µM,0.014 µM,"COc1ccc(-n2cc(C(=O)N3CCNCC3)nc2NC(=O)c2ccc(OC(F)F)cc2)cc1 [WO2022076764, Example 45]"
0.21 µM,0.027 µM,"COc1ccc(-n2cc(C(=O)NCCCO)nc2NC(=O)c2ccc(OC(F)F)cc2)cc1 [WO2022076764, Example 46]"
0.11 µM,0.035 µM,"COc1cc(F)c(-n2cc(C(=O)NCc3cccnc3)nc2NC(=O)c2ccc(OC(F)F)cc2)c(F)c1 [WO2022076764, Example 47]"
